Measured values taken from US9481676B2, “Azepino[4,5-B]indoles and methods of use” (Medivation Technologies, Inc., priority 2008, dated 2016).

Legend:
[1] = biological target: T1, human recombinant histamine H1 receptor (Homo sapiens, UniProt P35367); assay: Histamine H1 radioligand binding ([3H]Pyrilamine); settings: compound at 1 μM; read-out: Histamine Binding (1 μM) H1, percent inhibition of specific binding
T1 construct: expressed in transfected cells; host or cells: CHO cells
Summary of the method: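 Membranes from CHO cells expressing the receptor were incubated with compound and 1.2 nM [3H]pyrilamine for 180 min at 25 °C in 50 mM Tris-HCl pH 7.4 with MgCl2, NaCl and sucrose; 1 μM pyrilamine defined non-specific binding. Filter-bound radioactivity was counted.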

[2] = biological target: T2, human recombinant histamine H2 receptor (Homo sapiens, UniProt P25021); assay: Histamine H2 radioligand binding ([125I]Aminopotentidine); settings: compound at 1 μM; read-out: Histamine Binding (1 μM) H2, percent inhibition of specific binding
T2 construct: expressed in transfected cells; host or cells: CHO-K1 cells
Summary of the method: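 Membranes from CHO-K1 cells expressing recombinant human H2 receptor, in 50 mM phosphate buffer pH 7.4, incubated with 0.1 nM [125I]aminopotentidine for 120 min at 25 °C; nonspecific binding defined with 3 μM tiotidine.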

T2 sequence (P25021 whole entry): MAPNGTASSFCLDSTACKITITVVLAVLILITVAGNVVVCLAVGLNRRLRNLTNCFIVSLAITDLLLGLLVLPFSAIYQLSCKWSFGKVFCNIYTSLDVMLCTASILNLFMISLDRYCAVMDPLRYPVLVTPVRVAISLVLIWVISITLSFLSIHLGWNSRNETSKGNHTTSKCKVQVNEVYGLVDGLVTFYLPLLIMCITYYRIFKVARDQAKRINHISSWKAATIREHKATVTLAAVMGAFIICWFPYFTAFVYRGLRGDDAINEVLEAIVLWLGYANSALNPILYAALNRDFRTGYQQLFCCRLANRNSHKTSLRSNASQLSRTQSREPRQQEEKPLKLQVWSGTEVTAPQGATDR
T1 sequence (P35367 whole entry): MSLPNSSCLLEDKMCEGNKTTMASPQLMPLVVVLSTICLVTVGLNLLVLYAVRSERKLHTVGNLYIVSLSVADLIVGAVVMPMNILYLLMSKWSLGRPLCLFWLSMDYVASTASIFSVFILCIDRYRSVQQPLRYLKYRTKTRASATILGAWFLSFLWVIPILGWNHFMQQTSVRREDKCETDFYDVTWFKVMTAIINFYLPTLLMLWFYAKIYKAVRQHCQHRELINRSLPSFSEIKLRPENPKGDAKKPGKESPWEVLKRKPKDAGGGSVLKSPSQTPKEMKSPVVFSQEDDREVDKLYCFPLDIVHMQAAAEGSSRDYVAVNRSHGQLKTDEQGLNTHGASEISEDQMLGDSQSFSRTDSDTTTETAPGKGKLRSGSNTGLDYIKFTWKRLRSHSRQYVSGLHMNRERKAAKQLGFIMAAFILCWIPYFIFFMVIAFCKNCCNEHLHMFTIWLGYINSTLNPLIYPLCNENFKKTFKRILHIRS

Row | Compound | inhibition at 1 µM [1] | inhibition at 1 µM [2]
1 | Cc1ccc2c(c1)c1c(n2CCc2cncc(Cl)c2)CCN(C)CC1 [Compound No. 4, 6-(2-(5-chloropyridin-3-yl)ethyl)-1,2,3,4,5,6-hexahydro-3,9-dimethylazepino[4,5-b]indole] | 100% | 59%
2 | CN1CCc2c(n(CCc3ccncc3)c3ccc(Cl)cc23)CC1 [Compound No. 5, 9-chloro-1,2,3,4,5,6-hexahydro-3-methyl-6-(2-(pyridin-4-yl)ethyl)azepino[4,5-b]indole] | 100% | 62%
3 | Cc1ccc2c(c1)c1c(n2CCc2ccncc2)CCN(C)CC1 [Compound No. 6, 1,2,3,4,5,6-hexahydro-3,9-dimethyl-6-(2-(pyridin-4-yl)ethyl)azepino[4,5-b]indole] | 103% | 52%
4 | Cc1ccc(C(O)Cn2c3c(c4cc(Cl)ccc42)CCN(C)CC3)cn1 (centres unmarked) [Compound No. 7, 2-(9-chloro-2,3,4,5-tetrahydro-3-methylazepino[4,5-b]indol-6(1H)-yl)-1-(6-methylpyridin-3-yl)ethanol] | 101% | 52%
5 | CN1CCc2c(n(CCc3ccccn3)c3ccc(Cl)cc23)CC1 [Compound No. 8, 9-chloro-1,2,3,4,5,6-hexahydro-3-methyl-6-(2-(pyridin-2-yl)ethyl)azepino[4,5-b]indole] | 97% | 68%
6 | Cc1ccc2c(c1)c1c(n2CCc2ccccn2)CCN(C)CC1 [Compound No. 9, 1,2,3,4,5,6-hexahydro-3,9-dimethyl-6-(2-(pyridin-2-yl)ethyl)azepino[4,5-b]indole] | 99% | 44%
7 | CN1CCc2c(n(CCc3cncc(Cl)c3)c3ccc(Cl)cc23)CC1 [Compound No. 10, 9-chloro-6-(2-(5-chloropyridin-3-yl)ethyl)-1,2,3,4,5,6-hexahydro-3-methylazepino[4,5-b]indole] | 101% | 78%
8 | Cc1ccc2c(c1)c1c(n2CCc2ccc(C(=O)O)nc2)CCN(C)CC1 [Compound No. 11, 5-(2-(2,3,4,5-tetrahydro-3,9-dimethylazepino[4,5-b]indol-6(1H)-yl)ethyl)pyridine-2-carboxylic acid] | 97% | 7%
9 | CN1CCc2c(n(CC(C)(O)c3ccc(Cl)cc3)c3ccc(Cl)cc23)CC1 (centres unmarked) [Compound No. 12, 1-(9-chloro-2,3,4,5-tetrahydro-3-methylazepino[4,5-b]indol-6(1H)-yl)-2-(4-chlorophenyl)propan-2-ol] | 99% | 98%
10 | CN1CCc2c(n(CC(C)(O)c3ccc(F)cc3)c3ccc(Cl)cc23)CC1 (centres unmarked) [Compound No. 13, 1-(9-chloro-2,3,4,5-tetrahydro-3-methylazepino[4,5-b]indol-6(1H)-yl)-2-(4-fluorophenyl)propan-2-ol] | 98% | 92%
11 | Cc1ccc2c(c1)c1c(n2CC(C)(O)c2ccc(F)cc2)CCN(C)CC1 (centres unmarked) [Compound No. 14, 2-(4-fluorophenyl)-1-(2,3,4,5-tetrahydro-3,9-dimethylazepino[4,5-b]indol-6(1H)-yl)propan-2-ol] | 98% | 83%
12 | Cc1ccc2c(c1)c1c(n2CC(C)(O)c2ccc(Cl)cc2)CCN(C)CC1 (centres unmarked) [Compound No. 15, 2-(4-chlorophenyl)-1-(2,3,4,5-tetrahydro-3,9-dimethylazepino[4,5-b]indol-6(1H)-yl)propan-2-ol] | 100% | 92%
13 | CN1CCc2c(n(CC(O)c3ccc(Cl)cc3)c3ccc(Cl)cc23)CC1 (centres unmarked) [Compound No. 16, 2-(9-chloro-2,3,4,5-tetrahydro-3-methylazepino[4,5-b]indol-6(1H)-yl)-1-(4-chlorophenyl)ethanol] | 103% | 92%
14 | Cc1ccc2c(c1)c1c(n2CC(O)c2ccc(Cl)cc2)CCN(C)CC1 (centres unmarked) [Compound No. 17, 1-(4-chlorophenyl)-2-(2,3,4,5-tetrahydro-3,9-dimethylazepino[4,5-b]indol-6(1H)-yl)ethanol] | 101% | 84%
15 | CN1CCc2c(n(CC(O)c3cccnc3)c3ccc(Cl)cc23)CC1 (centres unmarked) [Compound No. 18, 2-(9-chloro-2,3,4,5-tetrahydro-3-methylazepino[4,5-b]indol-6(1H)-yl)-1-(pyridin-3-yl)ethanol] | 98% | 51%
16 | Cc1ccc2c(c1)c1c(n2CC(O)c2cccnc2)CCN(C)CC1 (centres unmarked) [Compound No. 19, 2-(2,3,4,5-tetrahydro-3,9-dimethylazepino[4,5-b]indol-6(1H)-yl)-1-(pyridin-3-yl)ethanol] | 99% | 42%
17 | Cc1ccc2c(c1)c1c(n2CCc2ccc(C(F)(F)F)nc2)CCN(C)CC1 [Compound No. 20, 6-(2-(6-(trifluoromethyl)pyridin-3-yl)ethyl)-1,2,3,4,5,6-hexahydro-3,9-dimethylazepino[4,5-b]indole] | 99% | 37%
18 | CN1CCc2c(n(CCc3ccc(C(=O)O)nc3)c3ccc(Cl)cc23)CC1 [Compound No. 21, 5-(2-(9-chloro-2,3,4,5-tetrahydro-3-methylazepino[4,5-b]indol-6(1H)-yl)ethyl)pyridine-2-carboxylic acid] | 96% | 13%
19 | Cc1ccc2c(c1)c1c(n2CC(=O)NC2CCCCC2)CCN(C)CC1 [Compound No. 22, N-cyclohexyl-2-(2,3,4,5-tetrahydro-3,9-dimethylazepino[4,5-b]indol-6(1H)-yl)acetamide] | 12% | 5%
20 | Cc1ccc2c(c1)c1c(n2CC(O)c2ccc(C)nc2)CCN(C)CC1 (centres unmarked) [Compound No. 23, 2-(2,3,4,5-tetrahydro-3,9-dimethylazepino[4,5-b]indol-6(1H)-yl)-1-(6-methylpyridin-3-yl)ethanol] | 58% | -3%
21 | CN1CCc2c(n(CC(O)c3ccccc3)c3ccc(Cl)cc23)CC1 (centres unmarked) [Compound No. 24, 2-(9-chloro-2,3,4,5-tetrahydro-3-methylazepino[4,5-b]indol-6(1H)-yl)-1-phenylethanol] | 100% | 58%
22 | Cc1ccc2c(c1)c1c(n2CC(O)c2ccccc2)CCN(C)CC1 (centres unmarked) [Compound No. 25, 2-(2,3,4,5-tetrahydro-3,9-dimethylazepino[4,5-b]indol-6(1H)-yl)-1-phenylethanol] | 91% | 47%
23 | Cc1ccc(C(O)Cn2c3c(c4cc(Cl)ccc42)CCN(C)CC3)cc1 (centres unmarked) [Compound No. 26, 2-(9-chloro-2,3,4,5-tetrahydro-3-methylazepino[4,5-b]indol-6(1H)-yl)-1-p-tolylethanol] | 97% | 84%
24 | Cc1ccc(C(O)Cn2c3c(c4cc(C)ccc42)CCN(C)CC3)cc1 (centres unmarked) [Compound No. 27, 2-(2,3,4,5-tetrahydro-3,9-dimethylazepino[4,5-b]indol-6(1H)-yl)-1-p-tolylethanol] | 101% | 78%
25 | Cc1ccc2c(c1)c1c(n2CCc2ccc(Cl)cc2)CCN(C)CC1 [Compound No. 28, 6-(4-chlorophenethyl)-1,2,3,4,5,6-hexahydro-3,9-dimethylazepino[4,5-b]indole] | 103% | 97%
